Values after ≈ are worked out from the molar mass of the structure shown.
Experiments:
Format in all cases: functional
Enterococcus faecalis [1] = assay: Antibacterial activity against vancomycin-resistant Enterococcus faecalis DRCC 153
Staphylococcus aureus [2] = assay: Antibacterial activity against methicillin-resistant Staphylococcus aureus DRCC 019
Staphylococcus aureus [3] = assay: Antibacterial activity against methicillin-resistant Staphylococcus aureus DRCC 446
Staphylococcus aureus [4] = assay: Antibacterial activity against methicillin-susceptible Staphylococcus aureus DRCC 035
Enterococcus faecalis [5] = assay: Antibacterial activity against vancomycin-susceptible Enterococcus faecalis DRCC 034
Haemophilus influenzae = assay: Antibacterial activity against beta lactamase negative Haemophilus influenzae DRCC 433
Staphylococcus aureus [6] = assay: Efficacy against po dosed mouse infected with Staphylococcus aureus ATCC 29213
Enterococcus faecalis [7] = assay: Antibacterial activity against vancomycin-resistant Enterococcus faecalis DRCC 154
Moraxella catarrhalis = assay: Antibacterial activity against beta lactamase negative Moraxella catarrhalis DRCC 300

## CO/C(S)=N/C[C@H]1CN(c2ccc(N3CCN(CC(=N)NO)CC3)c(F)c2)C(=O)O1
Enterococcus faecalis [1]
  MIC: 0.5 µg/mL (≈ 1.14 µM)
Staphylococcus aureus [2]
  MIC: 0.5 µg/mL (≈ 1.14 µM)
Staphylococcus aureus [3]
  MIC: 0.5 µg/mL (≈ 1.14 µM)
Staphylococcus aureus [4]
  MIC: 1 µg/mL (≈ 2.27 µM)
Enterococcus faecalis [5]
  MIC: 0.5 µg/mL (≈ 1.14 µM)
Haemophilus influenzae
  MIC: 8 µg/mL (≈ 18.2 µM)
Staphylococcus aureus [6]
  ED50: 21.2 mg/kg/day
Enterococcus faecalis [7]
  MIC: 0.5 µg/mL (≈ 1.14 µM)
Moraxella catarrhalis
  MIC: 8 µg/mL (≈ 18.2 µM)

## COC(=O)NC[C@H]1CN(c2ccc(N3CCN(CC(=N)NO)CC3)c(F)c2)C(=O)O1
Enterococcus faecalis [1]
  MIC: 4 µg/mL (≈ 9.42 µM)
Staphylococcus aureus [2]
  MIC: 16 µg/mL (≈ 37.7 µM)
Staphylococcus aureus [3]
  MIC: 16 µg/mL (≈ 37.7 µM)
Staphylococcus aureus [4]
  MIC: 8 µg/mL (≈ 18.8 µM)
Enterococcus faecalis [5]
  MIC: 4 µg/mL (≈ 9.42 µM)
Haemophilus influenzae
  MIC: 32 µg/mL (≈ 75.4 µM)
Enterococcus faecalis [7]
  MIC: 16 µg/mL (≈ 37.7 µM)
Moraxella catarrhalis
  MIC: > 16 µg/mL

## CO/C(S)=N/C[C@H]1CN(c2cc(F)c(N3CCN(CC(=N)NO)CC3)c(F)c2)C(=O)O1
Enterococcus faecalis [1]
  MIC: 0.25 µg/mL (≈ 0.545 µM)
Staphylococcus aureus [2]
  MIC: 0.25 µg/mL (≈ 0.545 µM)
Staphylococcus aureus [3]
  MIC: 0.25 µg/mL (≈ 0.545 µM)
Staphylococcus aureus [4]
  MIC: 0.5 µg/mL (≈ 1.09 µM)
Enterococcus faecalis [5]
  MIC: 0.25 µg/mL (≈ 0.545 µM)
Haemophilus influenzae
  MIC: 4 µg/mL (≈ 8.72 µM)
Staphylococcus aureus [6]
  ED50: 32.2 mg/kg/day
Enterococcus faecalis [7]
  MIC: 0.25 µg/mL (≈ 0.545 µM)
Moraxella catarrhalis
  MIC: 0.5 µg/mL (≈ 1.09 µM)

## N/C(CN1CCN(c2ccc(N3C[C@H](COc4ccon4)OC3=O)cc2F)CC1)=N\O
Enterococcus faecalis [1]
  MIC: 8 µg/mL (≈ 18.4 µM)
Staphylococcus aureus [2]
  MIC: 4 µg/mL (≈ 9.21 µM)
Staphylococcus aureus [3]
  MIC: 4 µg/mL (≈ 9.21 µM)
Staphylococcus aureus [4]
  MIC: 16 µg/mL (≈ 36.8 µM)
Enterococcus faecalis [5]
  MIC: 16 µg/mL (≈ 36.8 µM)
Haemophilus influenzae
  MIC: 256 µg/mL (≈ 589 µM)
Enterococcus faecalis [7]
  MIC: 16 µg/mL (≈ 36.8 µM)
Moraxella catarrhalis
  MIC: 8 µg/mL (≈ 18.4 µM)

## COC(=O)NC[C@H]1CN(c2cc(F)c(N3CCN(CC(=N)NO)CC3)c(F)c2)C(=O)O1
Enterococcus faecalis [1]
  MIC: 1 µg/mL (≈ 2.26 µM)
Staphylococcus aureus [2]
  MIC: 1 µg/mL (≈ 2.26 µM)
Staphylococcus aureus [3]
  MIC: 1 µg/mL (≈ 2.26 µM)
Staphylococcus aureus [4]
  MIC: 2 µg/mL (≈ 4.52 µM)
Enterococcus faecalis [5]
  MIC: 1 µg/mL (≈ 2.26 µM)
Haemophilus influenzae
  MIC: 8 µg/mL (≈ 18.1 µM)
Staphylococcus aureus [6]
  ED50: 32.2 mg/kg/day
Enterococcus faecalis [7]
  MIC: 2 µg/mL (≈ 4.52 µM)
Moraxella catarrhalis
  MIC: 2 µg/mL (≈ 4.52 µM)

## CC(=O)NC[C@H]1CN(c2cc(F)c(N3CCN(CC(=N)NO)CC3)c(F)c2)C(=O)O1
Enterococcus faecalis [1]
  MIC: 1 µg/mL (≈ 2.35 µM)
Staphylococcus aureus [2]
  MIC: 1 µg/mL (≈ 2.35 µM)
Staphylococcus aureus [3]
  MIC: 1 µg/mL (≈ 2.35 µM)
Staphylococcus aureus [4]
  MIC: 2 µg/mL (≈ 4.69 µM)
Enterococcus faecalis [5]
  MIC: 1 µg/mL (≈ 2.35 µM)
Haemophilus influenzae
  MIC: 4 µg/mL (≈ 9.38 µM)
Enterococcus faecalis [7]
  MIC: 1 µg/mL (≈ 2.35 µM)
Moraxella catarrhalis
  MIC: 4 µg/mL (≈ 9.38 µM)

## C/C(S)=N/C[C@H]1CN(c2cc(F)c(N3CCN(CC(=N)NO)CC3)c(F)c2)C(=O)O1
Enterococcus faecalis [1]
  MIC: 0.5 µg/mL (≈ 1.13 µM)
Staphylococcus aureus [2]
  MIC: 0.25 µg/mL (≈ 0.565 µM)
Staphylococcus aureus [3]
  MIC: 0.25 µg/mL (≈ 0.565 µM)
Staphylococcus aureus [4]
  MIC: 1 µg/mL (≈ 2.26 µM)
Enterococcus faecalis [5]
  MIC: 0.5 µg/mL (≈ 1.13 µM)
Haemophilus influenzae
  MIC: 4 µg/mL (≈ 9.04 µM)
Staphylococcus aureus [6]
  ED50: 22.1 mg/kg/day
Enterococcus faecalis [7]
  MIC: 0.25 µg/mL (≈ 0.565 µM)
Moraxella catarrhalis
  MIC: 0.5 µg/mL (≈ 1.13 µM)

## N/C(CN1CCN(c2c(F)cc(N3C[C@H](COc4ccon4)OC3=O)cc2F)CC1)=N\O
Enterococcus faecalis [1]
  MIC: 2 µg/mL (≈ 4.42 µM)
Staphylococcus aureus [2]
  MIC: 2 µg/mL (≈ 4.42 µM)
Staphylococcus aureus [3]
  MIC: 2 µg/mL (≈ 4.42 µM)
Staphylococcus aureus [4]
  MIC: 4 µg/mL (≈ 8.84 µM)
Enterococcus faecalis [5]
  MIC: 4 µg/mL (≈ 8.84 µM)
Haemophilus influenzae
  MIC: > 32 µg/mL
Enterococcus faecalis [7]
  MIC: 4 µg/mL (≈ 8.84 µM)
Moraxella catarrhalis
  MIC: 16 µg/mL (≈ 35.4 µM)

## CC(=O)NC[C@H]1CN(c2ccc(N3CCOCC3)c(F)c2)C(=O)O1 [LINEZOLID]
Staphylococcus aureus [2]
  MIC: 1 µg/mL (≈ 2.96 µM)
Haemophilus influenzae
  MIC: 8 µg/mL (≈ 23.7 µM)
Staphylococcus aureus [6]
  ED50: 5.3 mg/kg/day
Moraxella catarrhalis
  MIC: 8 µg/mL (≈ 23.7 µM)

## N/C(CN1CCN(c2ccc(N3C[C@H](CNC(=O)C(F)F)OC3=O)cc2F)CC1)=N\O
Enterococcus faecalis [1]
  MIC: 2 µg/mL (≈ 4.5 µM)
Staphylococcus aureus [2]
  MIC: 4 µg/mL (≈ 9 µM)
Staphylococcus aureus [3]
  MIC: 4 µg/mL (≈ 9 µM)
Staphylococcus aureus [4]
  MIC: 4 µg/mL (≈ 9 µM)
Enterococcus faecalis [5]
  MIC: 4 µg/mL (≈ 9 µM)
Haemophilus influenzae
  MIC: 4 µg/mL (≈ 9 µM)
Staphylococcus aureus [6]
  ED50: 12.1 mg/kg/day
Enterococcus faecalis [7]
  MIC: 4 µg/mL (≈ 9 µM)
Moraxella catarrhalis
  MIC: 8 µg/mL (≈ 18 µM)

## N/C(CN1CCN(c2c(F)cc(N3C[C@H](CNC(=O)C(F)F)OC3=O)cc2F)CC1)=N\O
Enterococcus faecalis [1]
  MIC: 0.5 µg/mL (≈ 1.08 µM)
Staphylococcus aureus [2]
  MIC: 1 µg/mL (≈ 2.16 µM)
Staphylococcus aureus [3]
  MIC: 1 µg/mL (≈ 2.16 µM)
Staphylococcus aureus [4]
  MIC: 2 µg/mL (≈ 4.33 µM)
Enterococcus faecalis [5]
  MIC: 1 µg/mL (≈ 2.16 µM)
Haemophilus influenzae
  MIC: 4 µg/mL (≈ 8.65 µM)
Staphylococcus aureus [6]
  ED50: 18.3 mg/kg/day
Enterococcus faecalis [7]
  MIC: 1 µg/mL (≈ 2.16 µM)
Moraxella catarrhalis
  MIC: 2 µg/mL (≈ 4.33 µM)

## CC(=O)NC[C@H]1CN(c2ccc(N3CCN(CC(=N)NO)CC3)c(F)c2)C(=O)O1
Enterococcus faecalis [1]
  MIC: 2 µg/mL (≈ 4.9 µM)
Staphylococcus aureus [2]
  MIC: 4 µg/mL (≈ 9.79 µM)
Staphylococcus aureus [3]
  MIC: 4 µg/mL (≈ 9.79 µM)
Staphylococcus aureus [4]
  MIC: 16 µg/mL (≈ 39.2 µM)
Enterococcus faecalis [5]
  MIC: 8 µg/mL (≈ 19.6 µM)
Haemophilus influenzae
  MIC: 8 µg/mL (≈ 19.6 µM)
Enterococcus faecalis [7]
  MIC: 8 µg/mL (≈ 19.6 µM)
Moraxella catarrhalis
  MIC: 8 µg/mL (≈ 19.6 µM)

## C/C(S)=N/C[C@H]1CN(c2ccc(N3CCN(CC(=N)NO)CC3)c(F)c2)C(=O)O1
Enterococcus faecalis [1]
  MIC: 1 µg/mL (≈ 2.36 µM)
Staphylococcus aureus [2]
  MIC: 1 µg/mL (≈ 2.36 µM)
Staphylococcus aureus [3]
  MIC: 1 µg/mL (≈ 2.36 µM)
Staphylococcus aureus [4]
  MIC: 2 µg/mL (≈ 4.71 µM)
Enterococcus faecalis [5]
  MIC: 1 µg/mL (≈ 2.36 µM)
Haemophilus influenzae
  MIC: 4 µg/mL (≈ 9.42 µM)
Enterococcus faecalis [7]
  MIC: 1 µg/mL (≈ 2.36 µM)

— ChEMBL document CHEMBL1147001, “Synthesis and antibacterial activity of novel oxazolidinones bearing N-hydroxyacetamidine substituent” (2006)
